In assay [1] the test system is CTX-induced immunocompromised mouse model. The format is in vivo. On the procedure:
(§1) SPF BALB/c male mice that each were 6 to 8 weeks old and weighed 18 g to 22 g were provided by Liaoning Changsheng Biotechnology Co., Ltd., with animal license No.: SCXK (Liao) 2020-0001. The BALB/c mice were randomly divided into 7 groups, with 8 mice in each group. Mice in the blank group and model group were each orally gavaged with 0.4 mL of NS, mice in the positive control group were each orally gavaged with levamisole hydrochloride (LEV) (10 mg·kg^−1), and mice in the B. lactis strain XLTG11 dose groups were orally gavaged with 0.4 mL of B. lactis strain XLTG11 suspensions at doses of 1×10^9 cfu, 1×10^8 cfu, 1×10^7 cfu, and 1×10^6 cfu per mouse, respectively. The mice were orally gavaged continuously for 28 d, during which the mice could eat and drink freely. On day 23 and day 24 after the oral gavage, mice in the model group, positive control group, and B. lactis strain XLTG11 dose groups were intraperitoneally injected with CTX (40 mg·kg^−1), and mice in the blank group were intraperitoneally injected with an equal volume of NS.

For assay [2] the test system is unchanged. Put plainly: Villus height of small intestinal mucosa in CTX mice. The assay is classed as in vivo, BALB/c male mice. The conditions noted are these: LEV 10 mg·kg^−1, vs model group, P<0.05, FIG. 10. Here is the method:
as §1

Assay [3] shares this test system. The format is in vivo. Particulars: serum, CTX mice, LEV 10 mg·kg^−1. On the procedure:
as §1
min after the last oral gavage to mice in each group, eyeballs were removed, the whole blood was collected and centrifuged at 3000 r·min^−1 for 10 min, and the resulting serum was collected, dispensed, and frozen in a −80° C. refrigerator for test. Serum IgA, IgG, IL-2, IL-6, IFN-γ, and TNF-α levels were determined with an ELISA kit, and specific operation steps were conducted according to the instructions.

The test system is the same in assay [4]. Description: Pathological changes of small intestinal mucosal tissue (HE staining) in CTX mice. The format is in vivo, BALB/c male mice. Particulars: LEV 10 mg·kg^−1, CTX mice, FIG. 9. On the procedure: as §1

Structures can show the parent of a compound that is named as a salt.

As for `c1ccc([C@H]2CN3CCSC3=N2)cc1` [Positive control, levamisole hydrochloride], in assay [1] (LEV 10 mg·kg^−1, CTX mice, before vs 24 h after SRBC injection), the Toe thickness difference is 0.054 cm. The compound further yielded a Goblet cell number in assay [1] (LEV 10 mg·kg^−1, CTX mice, number of goblet cells/epithelial length (mm)) of 25.22. In assay [1] (LEV 10 mg·kg^−1 oral gavage 28 d, CTX mice, spleen mass (mg)/body mass (g)), this compound registered a Spleen index of 2.97. In assay [1] (LEV 10 mg·kg^−1 oral gavage 28 d, CTX mice, thymus mass (mg)/body mass (g)), the Thymus index worked out at 1.42. In assay [2], the “small intestinal villus height” value is “increased”. In assay [3], this compound showed an IFN-γ of 466.78 ± 62.60 ng/L, an IL-2 of 666.32 ± 134.02 ng/L, an IL-6 of 77.12 ± 17.49 pg/mL and an IgA of 55.95 ± 3.66 ng/mL. In assay [3], this compound showed an IgG of 467.59 ± 54.35 ng/mL and a TNF-α of 496.86 ± 49.31 ng/L. In assay [4], the “damage of the small intestinal mucosal tissue” value was “improved”.

Values taken from patent publication US11959067B2, “Bifidobacterium lactis strain for preventing or treating colitis and method for preventing or alleviating colitis” (HARBIN SUNFLOWER PHARMACEUTICAL CO., LTD., priority 2021, dated 2024).
